Data on two compounds can be found in US8252520B2, “Methods and compounds for inhibiting Hec1 activity for the treatment of proliferative diseases” (Taivex Therapeutics Corporation, priority 2002, dated 2012).

Entries after “also recorded” stand apart in the source; their conditions may differ.

Holding throughout (assay type): cell-based
Test [1] relates to Nek2 phosphorylation of Hec1 at S165. The experiment in a line: Western blot of Hec1 S165 phosphorylation (anti-A439) in treated HeLa cells. The following applies: 20 μM, 36 hours. The protocol:
HeLa cells (lane 1) were treated with 0.08% DMSO (lane 2), 20 μM of INH1 (lane 3), INH2 (lane 4) or nocodazole (lane 5) for 36 hours before cells were harvested for immunoblotting with anti-Hec1, mAb9G3, for total Hec1 protein or anti-A439 for the phosphorylated Hec1 at S165 (pHEC1). Nek2 phosphorylation of Hec1 is undetectable in INH1 and INH2 treated cells (lanes 3 and 4).
(§1) We performed a co-immunoprecipitation assay using cells treated with INH1 or INH2 to test whether these compounds disrupt the interaction between Hec1 and Nek2. […] Similarly, we examined whether Nek2 phosphorylation of Hec1 is diminished in the cells treated with these drugs by Western blotting with […], which recognizes specifically the phosphorylated S165 of Hec1.
A general note: Immunoblotting shows a protein as a band on a membrane.

Test [2] deals with T1, interaction between Hec1 and Nek2 (Homo sapiens, UniProt O14777).
T1 construct: endogenous in cells; host or cells: HeLa cells
T1 sequence (O14777 1-642): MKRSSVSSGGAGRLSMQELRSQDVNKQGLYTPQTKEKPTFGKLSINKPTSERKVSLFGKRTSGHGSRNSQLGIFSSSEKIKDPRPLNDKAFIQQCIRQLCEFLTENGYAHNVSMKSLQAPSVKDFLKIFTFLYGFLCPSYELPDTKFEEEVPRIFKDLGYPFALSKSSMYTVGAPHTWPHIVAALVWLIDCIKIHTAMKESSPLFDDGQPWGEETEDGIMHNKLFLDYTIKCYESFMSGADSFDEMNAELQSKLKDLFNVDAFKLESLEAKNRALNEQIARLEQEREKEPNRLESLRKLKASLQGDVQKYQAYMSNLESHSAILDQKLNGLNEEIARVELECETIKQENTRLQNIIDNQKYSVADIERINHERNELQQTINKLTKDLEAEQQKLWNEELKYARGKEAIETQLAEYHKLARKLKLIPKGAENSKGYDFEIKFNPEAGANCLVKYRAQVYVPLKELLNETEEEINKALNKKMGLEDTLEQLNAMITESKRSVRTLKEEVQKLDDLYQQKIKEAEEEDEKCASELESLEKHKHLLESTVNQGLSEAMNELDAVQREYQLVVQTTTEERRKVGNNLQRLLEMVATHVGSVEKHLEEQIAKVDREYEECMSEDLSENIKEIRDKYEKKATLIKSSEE
The test can be described thus: co-immunoprecipitation of Nek2 with Hec1 from treated HeLa cells. The following applies: 10 and 20 μM, 24 hours. The protocol: FIG. 13A. Dissociation of Hec1 and Nek2 in INH1I-treated cells. HeLa cells were grown in log-phase and treated with 0.08% DMSO or with the indicated concentration of INH1 for 24 hours. Cells were harvested for immunoprecipitation with the anti-Hec1 antibody mAb 9G3. The immunoprecipitates were analyzed by western blot with either mAb 9G3 or anti-Nek2 antibodies. […] Fractions of lysates were taken for straight western blot with anti-Rad50 antibodies as a loading control.
as §1

Test [3] relates to HeLa cells. The experiment in a line: microscopy of H2B-GFP labeled HeLa cells (chromosome segregation). The following applies: 10 mM of INH1 (FIG. 14A). The protocol:
FIG. 14A. Micrographic pictures of H2B-GFP labeled HeLa cells treated with DMSO (Mock) or 10 mM of INH1. White arrows indicate lagging chromosomes during M phase.

In test [4] the test system is HeLa cells. The test can be described thus: colony formation assay in HeLa cells. The following applies: 12 days treatment, INH1 compared with INH2. On the procedure:
FIG. 12. Effects of INH1 and INH2 on colony formation of HeLa cells. Exponentially grown cells were seeded at 800 cells per 10-cm dish for 24 h and treated with indicated concentrations of INH1 (MW: 308.41; also referred to herein as IBT 13131; see FIG. 17), INH2 (MW 382.49; also referred to herein as IBT 14664; see FIG. 17), or control (DMSO less than 0.1%) for 12 days. The colonies were fixed and stained with methylene blue and counted. The values were averaged from a triplicate set of experiments, and error bars represent the SEM.
(§2) To determine whether the identified compounds would have the same effect in mammalian cells, we used HeLa cells to test the effects of these compounds in a small-scale experiment. […] These two compounds were named INH1 and INH2 (INH1, MW: 308.41; also referred to herein as IBT 13131; see FIG. 16; INH2, MW 382.49; also referred to herein as IBT 14664; see FIG. 16).

Test [5] concerns RB-reconstituted Saos2 cells (SR5). The experiment in a line: cell killing, trypan blue exclusion, RB-reconstituted Saos2 cells. The following applies: 10 μM, 60 hours. The protocol:
(§3) FIG. 15. Differential effect of INH1 in Rb positive and negative osteosarcoma Saos2 cells. Cells grown in log-phase were either untreated or treated with 0.08% DMSO or INH1 at the indicated concentrations for 60 hours. Surviving cells were counted by trypan blue exclusion and expressed as a percentage of the control. SR5 is a Rb reconstituted Saos-2 cell line. The values were the average of a triplicate set of experiments, with error bars representing the SEM.

Test [6] deals with HeLa cells. The experiment in a line: flow cytometric (FACS) analysis of treated HeLa cells. The settings on record: 5 or 10 μM, 72 hrs. On the procedure: FIG. 14B. Flow cytometric analysis of INH1 treated HeLa cells. Exponentially grown HeLa cells were seeded at 5×10^5 cells per 10-cm dish for 24 hrs and then treated with DMSO (control) or 5 or 10 μM of INH1 for 72 hrs. Cells were harvested and fixed in 70% ethanol for flow cytometry after staining with propidium iodide. Data represent one of three independent experiments.

Test [7] concerns parental (RB-negative) Saos2 cells. The experiment in a line: cell killing, trypan blue exclusion, parental Saos2 cells. The settings on record: 10 μM, 60 hours. The protocol: as §3
Test [8] relates to HeLa cells. The experiment in a line: small-scale killing of dividing HeLa cells. The following applies: dose of 20 (unit not given).
Excerpt: as §2

Take `Cc1ccc(-c2csc(NC(=O)c3ccccc3)n2)c(C)c1` [INH1]: in test [1], the “Nek2 phosphorylation of Hec1 (S165)” value was “abolished; also recorded: undetectable”. The entries for the “Nek2 co-precipitated with anti-Hec1 antibodies” value in test [2] and in test [2] (listed as INH 1) were “very little or no Nek2 protein” and “Nek2 failed to be co-immunoprecipitated with Hec1”, respectively. In addition, the chromosome segregation phenotype entry in test [3] is recorded as “generated chromosome missegregations”. For the same compound, the “killing activity by colony formation” value in test [4] is given as “significant higher killing activity”. Further, the cells killed in test [5] is recorded as under 5%; in test [7] it was “more than 50%”. Further, in test [6], the “cell death by FACS analysis” value was “led to cell death”. For the same compound, in test [8], the “activity in killing dividing cells” value is recorded as “significant activity”.

Turning to INH2, the “Nek2 phosphorylation of Hec1 (S165)” value in test [1] is given as “abolished; also recorded: undetectable”. Besides, the “activity in killing dividing cells” value in test [8] is recorded as “significant activity”.
